Laboratory results taken from patent publication US20240393292A1, “ALLERGY ANTIGEN AND EPITOPE THEREOF” (HOYU CO., LTD., priority 2019, published 2024).
One block for each substance: values may come before it.

Tested on: IgE antibodies from patients
Experiment: Wheat epitope mapping (2): overlapping 10-amino-acid peptide fragments shifted by one amino acid
Assay type: binding, human
Conditions: for Epitope sequence binding to IgE antibody, rank of the sequence (Key/Preferably/More preferably) / Epitope sequence binding to IgE antibody, rank of the sequence (Key/Preferably/More preferably/Further preferably): sequence without X; for Epitope sequence binding to IgE antibody, rank of the sequence (Key/Preferably/More preferably/Further preferably): serum of patient P50 (child, general immediate type allergy to wheat); for Epitope sequence binding to IgE antibody, rank of the sequence: partial sequence
Procedure, shortened: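 Residual binding was banded as <30% none, 30–<50% poor, 50–<70% somewhat poor and ≥70% retained, relative to the parent overlapping sequence set to 100%. Values were chemiluminescent IgE signals from patient sera after subtracting secondary-antibody-only controls. The peptides were spot-synthesised 10-mers shifted by one amino acid.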

[1] = serum of patient P52 (child, general immediate type allergy to wheat)
[2] = serum of patient G2 (adult, general immediate type allergy to wheat)
[3] = serum of patient G7 (adult, general immediate type allergy to wheat)
[4] = serum of patient P51 (child, general immediate type allergy to wheat)
[5] = serum of patient P53 (child, general immediate type allergy to wheat)

Substance: 2436 (WSGKTE; REGION 1..6: note = epitope) [compound 2436]
Epitope sequence binding to IgE antibody, rank of the sequence (Key/Preferably/More preferably) (serum of patient P26 (WDEIA)): Key

Substance: 2441 (KAWSGK; REGION 1..6: note = epitope) [compound 2441]
Epitope sequence binding to IgE antibody, rank of the sequence (Key/Preferably/More preferably) (serum of patient P28 (WDEIA)): Key

Substance: 2453 (LKAWSGK; REGION 1..7: note = epitope) [compound 2453]
Epitope sequence binding to IgE antibody, rank of the sequence (Key/Preferably/More preferably) (serum of patient P35 (WDEIA)): Preferably

Substance: 2460 (LKAWSGK; REGION 1..7: note = epitope) [compound 2460]
Epitope sequence binding to IgE antibody, rank of the sequence (Key/Preferably/More preferably/Further preferably): Further preferably

Substance: 2461 (LKAWSG; REGION 1..6: note = epitope) [compound 2461]
Epitope sequence binding to IgE antibody, rank of the sequence (Key/Preferably/More preferably/Further preferably): More preferably

Substance: 2464 (WSGKTENEE; REGION 1..9: note = epitope) [compound 2464]
Epitope sequence binding to IgE antibody, rank of the sequence (Key/Preferably/More preferably/Further preferably): More preferably

Substance: 2470 (LKAWSGK; REGION 1..7: note = epitope) [compound 2470]
Epitope sequence binding to IgE antibody, rank of the sequence (Key/Preferably/More preferably) [1]: Preferably

Substance: 2472 (SGKTENEE; REGION 1..8: note = epitope) [compound 2472]
Epitope sequence binding to IgE antibody, rank of the sequence (Key/Preferably/More preferably) [1]: More preferably

Substance: 2480 (KAWSG; REGION 1..5: note = epitope) [compound 2480]
Epitope sequence binding to IgE antibody, rank of the sequence (Key/Preferably/More preferably) [2]: Key

Substance: 2487 (KAWSGK; REGION 1..6: note = epitope) [compound 2487]
Epitope sequence binding to IgE antibody, rank of the sequence (Key/Preferably/More preferably) [3]: More preferably

Substance: 2493 (SSQVSF; REGION 1..6: note = epitope) [compound 2493]
Epitope sequence binding to IgE antibody, rank of the sequence (serum of patient P2 (WDEIA)): Preferably

Substance: 2494 (QVSF; REGION 1..4: note = epitope) [compound 2494]
Epitope sequence binding to IgE antibody, rank of the sequence (serum of patient P2 (WDEIA)): Key

Substance: 2495 (FQPSQLNPQ; REGION 1..9: note = epitope) [compound 2495]
Epitope sequence binding to IgE antibody, rank of the sequence (serum of patient P2 (WDEIA)): Key

Substance: 2497 (QVSF; REGION 1..4: note = epitope) [compound 2497]
Epitope sequence binding to IgE antibody, rank of the sequence (serum of patient P7 (WDEIA)): Key

Substance: 2499 (SQVSF; REGION 1..5: note = epitope) [compound 2499]
Epitope sequence binding to IgE antibody, rank of the sequence (serum of patient P8 (WDEIA)): Preferably

Substance: 2500 (QVSF; REGION 1..4: note = epitope) [compound 2500]
Epitope sequence binding to IgE antibody, rank of the sequence (serum of patient P8 (WDEIA)): Key

Substance: 2501 (SFQPSQLNPQ; REGION 1..10: note = epitope) [compound 2501]
Epitope sequence binding to IgE antibody, rank of the sequence (serum of patient P8 (WDEIA)): Key

Substance: 2502 (SSQVSFQPSQ; REGION 1..10: note = epitope) [compound 2502]
Epitope sequence binding to IgE antibody, rank of the sequence (serum of patient P15 (WDEIA)): Preferably

Substance: 2503 (SSQVSF; REGION 1..6: note = epitope) [compound 2503]
Epitope sequence binding to IgE antibody, rank of the sequence (serum of patient P15 (WDEIA)): Key

Substance: 2504 (SSQVSF; REGION 1..6: note = epitope) [compound 2504]
Epitope sequence binding to IgE antibody, rank of the sequence (serum of patient P16 (WDEIA)): Preferably

Substance: 2505 (SQVSF; REGION 1..5: note = epitope) [compound 2505]
Epitope sequence binding to IgE antibody, rank of the sequence (serum of patient P16 (WDEIA)): Key

Substance: 2506 (SSQVSFQPSQ; REGION 1..10: note = epitope) [compound 2506]
Epitope sequence binding to IgE antibody, rank of the sequence (serum of patient P20 (WDEIA)): Preferably

Substance: 2507 (SQVSF; REGION 1..5: note = epitope) [compound 2507]
Epitope sequence binding to IgE antibody, rank of the sequence (serum of patient P20 (WDEIA)): Key

Substance: 2508 (SQVSF; REGION 1..5: note = epitope) [compound 2508]
Epitope sequence binding to IgE antibody, rank of the sequence (serum of patient P22 (WDEIA)): Key

Substance: 2509 (QVSF; REGION 1..4: note = epitope) [compound 2509]
Epitope sequence binding to IgE antibody, rank of the sequence (serum of patient P29 (WDEIA)): Key

Substance: 2510 (PSQLNPQ; REGION 1..7: note = epitope) [compound 2510]
Epitope sequence binding to IgE antibody, rank of the sequence (serum of patient P29 (WDEIA)): Key

Substance: 2512 (SQVSF; REGION 1..5: note = epitope) [compound 2512]
Epitope sequence binding to IgE antibody, rank of the sequence (serum of patient P36 (WDEIA)): Key

Substance: 2514 (SFQPSQLNPQ; REGION 1..10: note = epitope) [compound 2514]
Epitope sequence binding to IgE antibody, rank of the sequence [4]: Preferably

Substance: 2515 (SFQPSQ; REGION 1..6: note = epitope) [compound 2515]
Epitope sequence binding to IgE antibody, rank of the sequence [4]: Key

Substance: 2516 (SSQVSF; REGION 1..6: note = epitope) [compound 2516]
Epitope sequence binding to IgE antibody, rank of the sequence [5]: Key

Substance: 2518 (PSQLNPQ; REGION 1..7: note = epitope) [compound 2518]
Epitope sequence binding to IgE antibody, rank of the sequence [5]: Preferably

Substance: 2519 (PSQLN; REGION 1..5: note = epitope) [compound 2519]
Epitope sequence binding to IgE antibody, rank of the sequence [5]: Key

Substance: 2523 (PSQLNPQA; REGION 1..8: note = epitope) [compound 2523]
Epitope sequence binding to IgE antibody, rank of the sequence (serum of patient P56 (child, general immediate type allergy to wheat)): Further preferably

Substance: 2528 (SSQVSF; REGION 1..6: note = epitope) [compound 2528]
Epitope sequence binding to IgE antibody, rank of the sequence [2]: Key

Substance: 2530 (FQPSQLNP; REGION 1..8: note = epitope) [compound 2530]
Epitope sequence binding to IgE antibody, rank of the sequence [2]: Preferably

Substance: 2531 (FQPSQLN; REGION 1..7: note = epitope) [compound 2531]
Epitope sequence binding to IgE antibody, rank of the sequence [2]: Key

Substance: 2541 (SSQVSFQPSQ; REGION 1..10: note = epitope) [compound 2541]
Epitope sequence binding to IgE antibody, rank of the sequence [3]: Preferably

Substance: 2542 (SSQVSF; REGION 1..6: note = epitope) [compound 2542]
Epitope sequence binding to IgE antibody, rank of the sequence [3]: Key

Substance: 2543 (VSFQPSQLN; REGION 1..9: note = epitope) [compound 2543]
Epitope sequence binding to IgE antibody, rank of the sequence [3]: Preferably

Substance: 2547 (QSTYQLVQQL; REGION 1..10: note = epitope) [compound 2547]
Epitope sequence binding to IgE antibody, rank of the sequence (serum of patient P2 (WDEIA)): Preferably

Substance: 2548 (QSTY; REGION 1..4: note = epitope) [compound 2548]
Epitope sequence binding to IgE antibody, rank of the sequence (serum of patient P2 (WDEIA)): Key

Substance: 2549 (QLVQQLCC; REGION 1..8: note = epitope) [compound 2549]
Epitope sequence binding to IgE antibody, rank of the sequence (serum of patient P2 (WDEIA)): Key

Second part, the substance after the results:

Epitope sequence binding to IgE antibody, rank of the sequence (serum of patient P7 (WDEIA)): Preferably
Substance: 2552 (QLVQQLCC; REGION 1..8: note = epitope) [compound 2552]

Epitope sequence binding to IgE antibody, rank of the sequence (serum of patient P7 (WDEIA)): Key
Substance: 2553 (QLVQ; REGION 1..4: note = epitope) [compound 2553]

Epitope sequence binding to IgE antibody, rank of the sequence (serum of patient P20 (WDEIA)): Key
Substance: 2554 (LQQSTYQLVQ; REGION 1..10: note = epitope) [compound 2554]

Epitope sequence binding to IgE antibody, rank of the sequence (serum of patient P20 (WDEIA)): Key
Substance: 2555 (QSTYQLVQQL; REGION 1..10: note = epitope) [compound 2555]

Epitope sequence binding to IgE antibody, rank of the sequence (serum of patient P20 (WDEIA)): Key
Substance: 2556 (QLVQQLCC; REGION 1..8: note = epitope) [compound 2556]

Epitope sequence binding to IgE antibody, rank of the sequence (serum of patient P21 (WDEIA)): Key
Substance: 2558 (QSTYQLVQQL; REGION 1..10: note = epitope) [compound 2558]

Epitope sequence binding to IgE antibody, rank of the sequence (serum of patient P21 (WDEIA)): Key
Substance: 2559 (LVQQLCC; REGION 1..7: note = epitope) [compound 2559]

Epitope sequence binding to IgE antibody, rank of the sequence (serum of patient P22 (WDEIA)): Key
Substance: 2560 (LQQSTYQLVQ; REGION 1..10: note = epitope) [compound 2560]

Epitope sequence binding to IgE antibody, rank of the sequence (serum of patient P22 (WDEIA)): Key
Substance: 2561 (LVQQL; REGION 1..5: note = epitope) [compound 2561]

Epitope sequence binding to IgE antibody, rank of the sequence (serum of patient P24 (WDEIA)): Preferably
Substance: 2563 (QLVQQLCC; REGION 1..8: note = epitope) [compound 2563]

Epitope sequence binding to IgE antibody, rank of the sequence (serum of patient P24 (WDEIA)): Key
Substance: 2564 (QLVQQ; REGION 1..5: note = epitope) [compound 2564]

Epitope sequence binding to IgE antibody, rank of the sequence (serum of patient P25 (WDEIA)): Key
Substance: 2565 (QSTYQLVQ; REGION 1..8: note = epitope) [compound 2565]

Epitope sequence binding to IgE antibody, rank of the sequence (serum of patient P25 (WDEIA)): Key
Substance: 2566 (YQLVQQLCC; REGION 1..9: note = epitope) [compound 2566]

Epitope sequence binding to IgE antibody, rank of the sequence (serum of patient P26 (WDEIA)): Key
Substance: 2567 (QLVQQ; REGION 1..5: note = epitope) [compound 2567]

Epitope sequence binding to IgE antibody, rank of the sequence (serum of patient P27 (WDEIA)): Preferably
Substance: 2569 (QLVQQL; REGION 1..6: note = epitope) [compound 2569]

Epitope sequence binding to IgE antibody, rank of the sequence (serum of patient P27 (WDEIA)): Key
Substance: 2570 (QLVQQ; REGION 1..5: note = epitope) [compound 2570]

Epitope sequence binding to IgE antibody, rank of the sequence (serum of patient P28 (WDEIA)): Preferably
Substance: 2574 (QLVQQL; REGION 1..6: note = epitope) [compound 2574]

Epitope sequence binding to IgE antibody, rank of the sequence (serum of patient P28 (WDEIA)): Key
Substance: 2575 (QLVQ; REGION 1..4: note = epitope) [compound 2575]

Epitope sequence binding to IgE antibody, rank of the sequence (serum of patient P29 (WDEIA)): Key
Substance: 2578 (YQLVQQL; REGION 1..7: note = epitope) [compound 2578]

Epitope sequence binding to IgE antibody, rank of the sequence (serum of patient P30 (WDEIA)): Key
Substance: 2579 (YQLVQQ; REGION 1..6: note = epitope) [compound 2579]
